{
  "source": "patent US20090042993A1",
  "about": "“IDENTIFICATION OF NOVEL POST-TRANSLATIONAL PROTEIN MODIFICATIONS” (priority 2007, published 2009)",
  "test_system": "BACE1",
  "experiment": "Pulse-chase and cell-surface biotinylation of newly-synthesized BACE1",
  "assay_type": "cell-based, human",
  "settings": "BACE1WT expressing cells, 1.5 hours after the pulse",
  "experimental": "Confluent cells were starved for 1 hr in Met/Cys free medium, labeled with 100 μCi [^35S]-Met/Cys (Trans35S-Label, >1000 Ci/mmol; Pierce) in starvation medium/dish and chased for 8, 16, and 24 hours with DMEM supplemented with 5 mM cold Met/Cys. Cell extracts were pre-cleared with BioMag Protein A (Polysciences, Inc.). Beads were used at the concentration of 15 μl of the slurry per sample and separated with a magnetic holder. BACE1 was then immunoprecipitated with anti-BACE1 antibodies and recovered with BioMag Protein A as above. The immunoprecipitate-bead complexes were washed 3 times and boiled in sample buffer. Beads were then separated and the samples were analyzed by reducing SDS-PAGE (on a 4-12% Bis-Tris NuPAGE system) and autoradiography.\nFor cell-surface biotinylation, cells were labeled as above and chased for 1.5 hours. […] Proteins were eluted and recovered as above; BACE1 was then immunopurified and analyzed by reducing SDS-PAGE and autoradiography.\nFIG. 3 illustrates how transient lysine acetylation controls both translocation along the secretory pathway and molecular stability of the nascent BACE1 protein. […] Immunoprecipitates were analyzed by SDS-PAGE and autoradiography. […] BACE1 was then immunoprecipitated as above and analyzed by reducing SDS-PAGE and autoradiography. Results are expressed as percentage of total newly-synthesized BACE1. […]",
  "data": [
    {"smiles": "CCCCCCCCCCCCC/C=C/[C@@H](O)[C@H](CO)NC(=O)CCCCC", "note": "[ceramide, C6-ceramide]", "values": [
      {"measurement": "translocation of newly-synthesized BACE1 to the cell surface", "value": "increasing the translocation of newly-synthesized BACE1 to the cell surface to levels almost similar to BACE1Gln"}
    ]}
  ]
}
